{"source": "patent US20110105397A1", "about": "“METHOD FOR TREATING HEART FAILURE WITH STRESSCOPIN-LIKE PEPTIDES” (priority 2009, published 2011)", "key": {"human CRHR2 [1]": {"target": "T1, human CRHR2 (Homo sapiens, UniProt Q13324)", "T1 construct": "expressed in transfected cells", "T1 sequence (Q13324 1-411)": "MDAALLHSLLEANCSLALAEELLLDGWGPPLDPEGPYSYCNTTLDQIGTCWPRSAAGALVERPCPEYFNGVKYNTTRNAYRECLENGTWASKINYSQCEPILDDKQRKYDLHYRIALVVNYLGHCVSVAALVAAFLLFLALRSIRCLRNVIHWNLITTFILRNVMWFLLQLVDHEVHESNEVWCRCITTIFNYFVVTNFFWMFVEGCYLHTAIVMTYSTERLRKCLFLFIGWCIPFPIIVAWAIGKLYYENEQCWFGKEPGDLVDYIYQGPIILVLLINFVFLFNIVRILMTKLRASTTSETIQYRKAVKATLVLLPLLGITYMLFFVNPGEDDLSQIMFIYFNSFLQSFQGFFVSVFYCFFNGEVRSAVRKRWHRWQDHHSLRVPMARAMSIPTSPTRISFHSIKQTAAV", "test": "CRHR2 radioligand binding, [125I]-anti-sauvagine-30, SK-N-MC membranes", "conditions": "for Ki / nH: CRHR2", "procedure": "The binding profile of h-SCP (SEQ ID NO:1) at CRHR2 was determined in radioligand binding studies in a membrane preparation of SK-N-MC cells stably transfected with human CRHR2 using [^125I]-anti-sauvagine-30 as the radiolabel. […] The solution was then homogenized with a Polytron tissue grinder at a setting of 10 and 7×3 s (Brinkmann Instruments, Westbury, N.Y.). […] The supernatant was re-centrifuged at 26,892×g for 25 min at 4° Celsius with the final pellet being re-suspended in assay buffer. […] For competition studies, cell membranes of […] volume were incubated with either 60 pM [^125I]-anti-sauvagine-30 in 50 μl volume for the CRHR2 assay or with)[^125I]-([…]-sauvagine for the CRHR1 assay in the presence of 15 μl of competing ligand for 120 min having a total volume of 150 μl. […] The bound radioactivity was separated by filtration using a Multiscreen Resist manifold (Millipore Corp., Billerica, Mass., U.S.A). The filters were washed three times with ice-cold PBS at pH 7.5 and radioactivity retained on the filters was quantified by its liquid scintillation measured by a TopCount counter (Packard BioScience, Boston, Mass., U.S.A). All experiments were performed in triplicate. Data from individual competition curves were expressed as the percentage of specific [^125I]-anti-sauvagine-30 or)[^125I]-([…]-sauvagine binding (B) within each experiment. […] The competition curve obtained with h-SCP (SEQ ID NO:1) was biphasic."}, "human CRHR2 [2]": {"target": "T1, human CRHR2", "test": "cAMP assay, h-CRHR2 transfected SK-N-MC cells", "assay_type": "cell-based", "conditions": "for nH (Hill slope) / αmax (maximal asymptote): h-CRHR2; for αmax (maximal asymptote): in %", "summary_of_the_method": "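Intracellular cAMP was quantified by radioligand competition against a cAMP standard curve after HCl lysis of h-CRHR2-transfected SK-N-MC cells. These cells had been exposed to peptides from 1 pM to 1 μM for 1 h at 37 °C with IBMX. Responses were scaled to the daily h-SCP maximum and fitted to the Hill equation to give A50/pA50.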"}, "[3]": {"conditions": "Table 11, h-CRHR2 transfected SK-N-MC cells, 1 hr at 37° Celsius, read-out: pA50 (Experimental) (converted)"}}, "note": "Where “and” joins values, the source holds several entries; their conditions need not be identical. Identical values can stand only once. Like-named read-outs stand apart in the source and are kept apart here.", "data": [{"compound": "CC[C@H](C)[C@H](NC(=O)[C@H](CO)NC(=O)[C@H](CC(C)C)NC(=O)[C@@H]1CCCN1C(=O)[C@@H]1CCCN1C(=O)[C@H](CC(=O)O)NC(=O)[C@@H](N)CC(=O)O)C(=O)N[C@@H](CC(=O)O)C(=O)N[C@@H](CC(C)C)C(=O)N[C@H](C(=O)N[C@@H](Cc1ccccc1)C(=O)N[C@@H](Cc1c[nH]cn1)C(=O)N[C@@H](CC(C)C)C(=O)N[C@@H](CC(C)C)C(=O)N[C@@H](CCCNC(=N)N)C(=O)N[C@H](C(=O)N[C@@H](CC(C)C)C(=O)N[C@@H](CC(C)C)C(=O)N[C@@H](CCC(=O)O)C(=O)N[C@@H](CC(C)C)C(=O)N[C@@H](C)C(=O)N[C@@H](CCCNC(=N)N)C(=O)N[C@H](C(=O)N[C@@H](CCC(N)=O)C(=O)N[C@@H](CO)C(=O)N[C@@H](CCC(N)=O)C(=O)N[C@@H](CCCNC(=N)N)C(=O)N[C@@H](CCC(=O)O)C(=O)N[C@@H](CCCNC(=N)N)C(=O)N[C@@H](C)C(=O)N[C@@H](CCC(=O)O)C(=O)N[C@@H](CCC(N)=O)C(=O)N[C@@H](CC(N)=O)C(=O)N[C@@H](CCCNC(=N)N)C(=O)N[C@H](C(=O)N[C@H](C(=O)N[C@@H](Cc1ccccc1)C(=O)N[C@@H](CC(=O)O)C(=O)N[C@@H](CO)C(=O)N[C@H](C(N)=O)C(C)C)[C@@H](C)CC)[C@@H](C)CC)[C@@H](C)O)[C@@H](C)O)[C@@H](C)O", "note": "[SEQ ID NO: 114, DDPPLSIDLTFHLLRTLLELARTQSQRERAEQNRIIFDSV-NH2]", "values": [{"measurement": "Ki", "setting": "human CRHR2 [1]", "result": 3.09, "unit": "nM"}, {"measurement": "nH", "setting": "human CRHR2 [1]", "result": "1.19 ± 0.14"}, {"measurement": "nH (Hill slope)", "setting": "human CRHR2 [2]; Table 11", "result": 1.07}, {"measurement": "αmax (maximal asymptote)", "setting": "human CRHR2 [2]; Table 11", "result": 110.5}, {"measurement": "EC50", "setting": "human CRHR2 [2]; [3]", "result": 0.832, "unit": "nM"}]}, {"compound": "H-TKFTLSLDVPTNIMNLLFNIAKAKNLRAQAAANAHLMAQI-NH2 [SEQ ID NO: 1, TKFTLSLDVPTNIMNLLFNIAKAKNLRAQAAANAHLMAQI-NH2]", "values": [{"measurement": "Ki", "setting": "human CRHR2 [1]", "result": 1950, "unit": "nM"}, {"measurement": "nH", "setting": "human CRHR2 [1]", "result": "1.00 ± 0.04"}, {"measurement": "competition curve / binding profile", "setting": "human CRHR2 [1]; CRHR2, [125I]-anti-sauvagine-30", "result": "biphasic"}, {"measurement": "IC50", "setting": "human CRHR2 [1]; biphasic competition curve, read-out: low pIC50 (low affinity receptor binding state) (converted)", "result": 251, "unit": "nM"}, {"measurement": "nH (Hill slope)", "setting": "human CRHR2 [2]; Table 11, listed as h-SCP", "result": "0.99 and 1.04 and 1.39 and 1.55"}, {"measurement": "αmax (maximal asymptote)", "setting": "human CRHR2 [2]; Table 11, listed as h-SCP", "result": "99.31 and 97.53 and 116.1 and 98.2"}, {"measurement": "EC50", "setting": "human CRHR2 [2]; [3]", "result": "0.389 nM and 0.708 nM and 0.437 nM and 0.407 nM"}, {"measurement": "nH", "setting": "human CRHR2 [2]; Table 12", "result": 1.18}, {"measurement": "αmax", "setting": "human CRHR2 [2]; Table 12, normalized to the maximum response to h-SCP", "result": 98.68}, {"measurement": "EC50", "setting": "human CRHR2 [2]; Table 13, cysteine mutation, N-ethylmaleimide capping, pegylation, read-out: pA50 (converted)", "result": "0.182 to 0.339", "unit": "nM"}, {"measurement": "nH", "setting": "human CRHR2 [2]; Table 14", "result": 1.26}, {"measurement": "αmax", "setting": "human CRHR2 [2]; Table 14, % of the maximum response obtained to h-SCP", "result": 100.1, "unit": "%"}, {"measurement": "EC50", "setting": "human CRHR2 [2]; Table 14, read-out: pA50 (converted)", "result": 0.398, "unit": "nM"}]}, {"compound": "H-HPGSRIVLSLDVPIGLLQILLEQARARAAREQATTNARILARV-NH2 [SEQ ID NO: 117, HPGSRIVLSLDVPIGLLQILLEQARARAAREQATTNARILARV-NH2, reference compound]", "values": [{"measurement": "Ki", "setting": "human CRHR2 [1]", "result": 26.9, "unit": "nM"}, {"measurement": "nH", "setting": "human CRHR2 [1]", "result": "1.26 ± 0.14"}, {"measurement": "nH (Hill slope)", "setting": "human CRHR2 [2]; Table 11, listed as h-SRP", "result": "1.08 and 1.06 and 0.99"}, {"measurement": "αmax (maximal asymptote)", "setting": "human CRHR2 [2]; Table 11, listed as h-SRP", "result": "113.5 and 108.7 and 98.56"}, {"measurement": "EC50", "setting": "human CRHR2 [2]; [3]", "result": "0.479 nM and 0.263 nM and 0.589 nM"}]}]}
